Results reported in patent US20240325394A1, “SALT AND CRYSTAL FORM OF NITROGEN-CONTAINING HETEROCYCLIC DERIVATIVE, PREPARATION METHOD THEREFOR AND APPLICATION THEREOF” (SHANGHAI HANSOH BIOMEDICAL CO., LTD., priority 2020, published 2024).
Structures can show the parent of a compound that is named as a salt. Blank lines part the entries; values can stand above or below the molecule they belong to.

Columns and labels:
[1] = Solid stability (10 days), impurity increase by HPLC; assay type: physicochemical
[2] = Thermodynamic solubility in different media (FaSSGF, FaSSIF, FeSSIF, water) at 37° C.; assay type: physicochemical; settings: 24 hours
[3] = Solid stability of crystal form, XRPD after stress conditions; assay type: physicochemical
human KRAS G12C protein = target: T1, human KRAS G12C protein (Homo sapiens, UniProt P01116, G12C); test: Thermal shift: melting temperature of KRAS G12C protein; assay type: binding; settings: KRAS G12C protein 5.37 μM with compound 10 μM, 1 hour
T1 construct: purchased Beijing SinoBiological Co., Ltd. 12259-H07E2
Method: In this experiment, the thermal shift method was used to test the degree of change in the melting temperature (Tm) of the KRAS G12C protein before and after the binding of the compound, in order to characterize the ability of the compound to improve the stability of the KRAS G12C protein.
The specific experiment operation was as follows: • A solution containing […] (pH 7.5), 1 mM DTT, 5× SYPRO Orange and 150 mM NaCl was prepared as the experimental buffer, and a final concentration of 5.37 μM human KRAS G12C protein was added thereto. The reaction mixture was divided into 8 rows of PCR tubes, each 19.5 μL, and 0.5 μL of the test compound or DMSO were added respectively, so that the total reaction system was 20 μL, the final concentration of the compound was 10 μM, and 2.5% DMSO was set as the solvent control. After incubating at room temperature in the dark for 1 hour, the PCR tube was put into the PCR instrument, QuantStudio Software v1.3 was opened, and the melting temperature of KRAS G12C protein in different treatment groups was detected by melt curve function (heating from 25° C. to 95° C., 0.03° C./s).
The experimental data file of PCR instrument was imported into thermal shift software, and the melting temperature (Tm) of each treatment group was obtained, and the change value of melting temperature (ATm) was obtained by subtracting the Tm of DMSO solvent control group.

[4] = Plasma stability, dog plasma; assay type: in vitro ADME; settings: dog plasma, 37° C.
Method: (§1) Animal or human whole blood was collected, then the blood was put into a test tube containing anticoagulant, centrifuged at 3500 rpm for 10 min, and the upper layer of pale yellow plasma was collected. • 2) 10 μM of tested compound (m/M/V=C)
(§2) The compound was weighed, the stock solution was prepared with DMSO and the working solution was prepared with 100 mM phosphate buffer. • 3) 10 μM of positive control • (1) Propantheline (Propantheline Mr=449.4 Da)
(§3) • 1) 285 μL of plasma and 15 μL of 10 μM compound (tested compound) were added in turn in a 96-well plate, and incubated at 37° C. • 2) 40 μL was taken out at 0, 15, 30, 60, 90, 120 min, respectively, and 160 μL of acetonitrile termination solution containing internal standard was added. • 3) After centrifugation (3500 rpm, 10 min), 50 μL of supernatant was taken out, and then diluted with 50 μL DDH2O and injected to LC-MS/MS.
(§4) • instrument: Shimadzu LC-20 AD • chromatographic column: phenomenex Gemiu® C18 (50*4.6 mm, 5 μM particle size); • mobile phase: A: acetonitrile, B: 0.1% formic acid solution 0-8 min: 5% A→95% A, 2.0-2.1 min: 90% A→5% A; flow rate: 0.8 mL/min; running time: 5.0 min; injection volume: 5 μL.
(§5) • instrument: API4000 Liquid Chromatography-Mass Spectrometry, AB, USA; • the ion source was electrospray ionization source (ESI); • the temperature of dry gas (N2) was 500° C.; • electrospray voltage was 5500V; • the detection method was positive ion detection; • the scanning mode was selective response monitoring (MRM); • the scanning time was 0.1 s.

[5] = Plasma stability, rat plasma; assay type: in vitro ADME; settings: rat plasma, 37° C.
Method: as §1, §2, §3, §4, §5

[6] = Plasma stability, mouse plasma; assay type: in vitro ADME; settings: mouse
Method: as §1, §2, §3, §4, §5

[7] = Plasma stability, human plasma; assay type: in vitro ADME; settings: human
Method: as §1, §2, §3, §4, §5

Structure (SMILES): C=CC(=O)N1C[C@H](C)N(c2nc(=O)n(-c3c(SC)ccnc3C(C)C)c3nc(-c4c(N)ccc(Cl)c4F)c(Cl)cc23)C[C@H]1C [Crystal form I of hydroxyethyl sulfonate, P-4-((2S,5R)-4-acryloyl-2,5-dimethylpiperazin-1-yl)-7-(6-amino-3-chloro-2-fluorophenyl)-6-chloro-1-(2-isopropyl-4-(methylthio)pyridin-3-yl)pyrido[2,3-d]pyrimidin-2(1H)-one]
Stability of solid (10 days) (impurity increase %) ([1]; 50° C. & 75% RH): 0.30%
Stability of solid (10 days) (impurity increase %) ([1]; 60° C.): 0.26%
Stability of solid (10 days) (impurity increase %) ([1]; 92.5% RH): 0.01%
Stability of solid (10 days) (impurity increase %) ([1]; Light (5000±500 lux)): 0.27%
Solubility ([2]; FaSSGF): 314.6 µg/mL
Solubility ([2]; FaSSIF): 158.8 µg/mL
Solubility ([2]; FeSSIF): 347.3 µg/mL
Solubility ([2]; H2O): 7.4 µg/mL
Crystal form of hydroxyethyl sulfonate (XRPD) ([3]; High humidity (25° C., 75%, 10 days)): Crystal form I
Crystal form of hydroxyethyl sulfonate (XRPD) ([3]; High humidity (25° C., 90%, 10 days)): Crystal form I
Crystal form of hydroxyethyl sulfonate (XRPD) ([3]; High temperature (40° C., 30 days)): Crystal form I
Crystal form of hydroxyethyl sulfonate (XRPD) ([3]; High temperature (60° C., 30 days)): Crystal form I
Crystal form of hydroxyethyl sulfonate (XRPD) ([3]; Initial crystal form): Crystal form I
Crystal form of hydroxyethyl sulfonate (XRPD) ([3]; Light (≥1.2 × 10^6 lux-h, 10 days)): Crystal form I
Crystal form of hydroxyethyl sulfonate (XRPD) ([3]; Micropowder): Crystal form I
Solid stability (in words) ([3]; light, high humidity, high temperature, and micropowder conditions): relatively stable

Structure (SMILES): C=CC(=O)N1CCN(c2nc(=O)n(-c3c(SC)ccnc3C(C)C)c3nc(-c4c(O)cccc4F)c(F)cc23)[C@@H](C)C1 [Embodiment 1, 4-((S)-4-Acryloyl-2-methylpiperazin-1-yl)-6-fluoro-7-(2-fluoro-6-hydroxyphenyl)-1-(2-isopropyl-4-(methylthio)pyridin-3-yl)pyrido[2,3-d]pyrimidin-2(1H)-one]
Tm (human KRAS G12C protein): 60.2 °C

Tm (human KRAS G12C protein): 57.2 °C
Structure (SMILES): C=CC(=O)N1C[C@H](C)N(c2nc(=O)n(-c3c(SC)ccnc3C(C)C)c3nc(-c4c(O)cccc4F)c(F)cc23)C[C@H]1C [Embodiment 2, 4-((2S,5R)-4-acryloyl-2,5-dimethylpiperazin-1-yl)-6-fluoro-7-(2-fluoro-6-hydroxyphenyl)-1-(2-isopropyl-4-(methylthio)pyridin-3-yl)pyrido[2,3-d]pyrimidin-2(1H)-one]

Structure (SMILES): C=CC(=O)N1CCN(c2nc(=O)n(-c3c(SC)ccnc3C(C)C)c3nc(-c4c(N)cccc4F)c(F)cc23)[C@@H](C)C1 [Embodiment 5, 4-((S)-4-acryloyl-2-methylpiperazin-1-yl)-7-(2-amino-6-fluorophenyl)-6-fluoro-1-(2-isopropyl-4-(methylthio)pyridin-3-yl)pyrido[2,3-d]pyrimidin-2(1H)-one]
Tm (human KRAS G12C protein): 64.4 °C

Tm (human KRAS G12C protein): 60.2 °C
Structure (SMILES): C=CC(=O)N1CCN(c2nc(=O)n(-c3c(SC)ccnc3C(C)C)c3nc(-c4c(N)ccc(Cl)c4F)c(Cl)cc23)[C@@H](C)C1 [Embodiment 9, 4-((S)-4-acryloyl-2-methylpiperazin-1-yl)-7-(6-amino-3-chloro-2-fluorophenyl)-6-chloro-1-(2-isopropyl-4-(methylthio)pyridin-3-yl)pyrido[2,3-d]pyrimidin-2(1H)-one]

Structure (SMILES): C=CC(=O)N1C[C@H](C)N(c2nc(=O)n(-c3c(SC)ccnc3C(C)C)c3nc(-c4c(N)ccc(Cl)c4F)c(Cl)cc23)C[C@H]1C [Embodiment 13, 4-((2S,5R)-4-acryloyl-2,5-dimethylpiperazin-1-yl)-7-(6-amino-3-chloro-2-fluorophenyl)-6-chloro-1-(2-isopropyl-4-(methylthio)pyridin-3-yl)pyrido[2,3-d]pyrimidin-2(1H)-one]
Tm (human KRAS G12C protein): 58.0 °C

Structure (SMILES): CC[C@H](C)C(=O)O[C@H]1C[C@@H](C)C=C2C=C[C@H](C)[C@H](CC[C@@H]3C[C@@H](O)CC(=O)O3)[C@H]21 [Lovastatin, reference compound]
t1/2 [4]: 80.22 min
Residual rate (%) 0 min ([4]; 0 min): 100.00%
Residual rate (%) 15 min ([4]; 15 min): 95.25%
Residual rate (%) 30 min ([4]; 30 min): 95.45%
Residual rate (%) 60 min ([4]; 60 min): 75.66%
Residual rate (%) 120 min ([4]; 120 min): 36.25%
t1/2 [5]: 6.69 min
Residual rate (%) 0 min ([5]; 0 min): 100.00%
Residual rate (%) 15 min ([5]; 15 min): 21.15%
Residual rate (%) 30 min ([5]; 30 min): 1.77%
Residual rate (%) 60 min ([5]; 60 min): 0.36%
Residual rate (%) 120 min ([5]; 120 min): 0.30%

Structure (SMILES): CC(C)[N+](C)(CCOC(=O)C1c2ccccc2Oc2ccccc21)C(C)C [Propantheline, reference compound]
Residual rate (%) 0 min ([6]; 0 min, 0.5 μM): 100.00%
Residual rate (%) 15 min ([6]; 15 min, 0.5 μM): 79.79%
Residual rate (%) 30 min ([6]; 30 min, 0.5 μM): 48.66%
Residual rate (%) 60 min ([6]; 60 min, 0.5 μM): 23.39%
Residual rate (%) 120 min ([6]; 120 min, 0.5 μM): 6.66%
half-life at 0.5 μM ([6]; plasma): 27.7 min
Residual rate (%) 0 min ([7]; 0 min, 0.5 μM): 100.00%
Residual rate (%) 15 min ([7]; 15 min, 0.5 μM): 79.98%
Residual rate (%) 30 min ([7]; 30 min, 0.5 μM): 50.52%
Residual rate (%) 60 min ([7]; 60 min, 0.5 μM): 14.65%
Residual rate (%) 120 min ([7]; 120 min, 0.5 μM): 0.72%
half-life at 0.5 μM ([7]; plasma): 21 min

Structure (SMILES): C=CC(=O)N1C[C@H](C)N(c2nc(=O)n(-c3c(SC)ccnc3C(C)C)c3nc(-c4c(N)ccc(Cl)c4F)c(Cl)cc23)C[C@H]1C [crystal form II of sulfate, P-4-((2S,5R)-4-acryloyl-2,5-dimethylpiperazin-1-yl)-7-(6-amino-3-chloro-2-fluorophenyl)-6-chloro-1-(2-isopropyl-4-(methylthio)pyridin-3-yl)pyrido[2,3-d]pyrimidin-2(1H)-one]
Stability of solid (10 days) (impurity increase %) ([1]; 50° C. & 75% RH, HPLC peak area normalization): 0.15%
Stability of solid (10 days) (impurity increase %) ([1]; 60° C., HPLC peak area normalization): 0.91%
Stability of solid (10 days) (impurity increase %) ([1]; 92.5% RH, HPLC peak area normalization): 0.56%
Stability of solid (10 days) (impurity increase %) ([1]; Light (5000±500 lux), HPLC peak area normalization): 1.12%
Solid stability (in words) ([1]; light, high humidity, high temperature and high humidity conditions): relatively stable
Solubility ([2]; FaSSGF): 386.5 µg/mL
Solubility ([2]; FaSSIF): 150.3 µg/mL
Solubility ([2]; FeSSIF): 383.5 µg/mL
Solubility ([2]; H2O): 13.2 µg/mL
